Source: patent publication US20220402925A1, “COMPOUNDS AND METHODS FOR THE TREATMENT OF CYSTIC FIBROSIS” (Flatley Discovery Lab, LLC, priority 2019, published 2022)

Each molecule was assayed against T1, F508del CFTR (Homo sapiens, UniProt P13569, DEL508-508) (assay: Equivalent current assay in primary CF airway epithelial cells (Corrector Activity, NAUC normalized to 3 μM VX809)). Settings: NAUC as % of positive control (VX-809).
T1 construct: Primary CF airway epithelial cells were obtained from the UNC Cystic Fibrosis Tissue Procurement and Cell Culture Core; host or cells: primary CF airway epithelial cells
T1 sequence (P13569 with tags, fused parts or gaps DEL508-508): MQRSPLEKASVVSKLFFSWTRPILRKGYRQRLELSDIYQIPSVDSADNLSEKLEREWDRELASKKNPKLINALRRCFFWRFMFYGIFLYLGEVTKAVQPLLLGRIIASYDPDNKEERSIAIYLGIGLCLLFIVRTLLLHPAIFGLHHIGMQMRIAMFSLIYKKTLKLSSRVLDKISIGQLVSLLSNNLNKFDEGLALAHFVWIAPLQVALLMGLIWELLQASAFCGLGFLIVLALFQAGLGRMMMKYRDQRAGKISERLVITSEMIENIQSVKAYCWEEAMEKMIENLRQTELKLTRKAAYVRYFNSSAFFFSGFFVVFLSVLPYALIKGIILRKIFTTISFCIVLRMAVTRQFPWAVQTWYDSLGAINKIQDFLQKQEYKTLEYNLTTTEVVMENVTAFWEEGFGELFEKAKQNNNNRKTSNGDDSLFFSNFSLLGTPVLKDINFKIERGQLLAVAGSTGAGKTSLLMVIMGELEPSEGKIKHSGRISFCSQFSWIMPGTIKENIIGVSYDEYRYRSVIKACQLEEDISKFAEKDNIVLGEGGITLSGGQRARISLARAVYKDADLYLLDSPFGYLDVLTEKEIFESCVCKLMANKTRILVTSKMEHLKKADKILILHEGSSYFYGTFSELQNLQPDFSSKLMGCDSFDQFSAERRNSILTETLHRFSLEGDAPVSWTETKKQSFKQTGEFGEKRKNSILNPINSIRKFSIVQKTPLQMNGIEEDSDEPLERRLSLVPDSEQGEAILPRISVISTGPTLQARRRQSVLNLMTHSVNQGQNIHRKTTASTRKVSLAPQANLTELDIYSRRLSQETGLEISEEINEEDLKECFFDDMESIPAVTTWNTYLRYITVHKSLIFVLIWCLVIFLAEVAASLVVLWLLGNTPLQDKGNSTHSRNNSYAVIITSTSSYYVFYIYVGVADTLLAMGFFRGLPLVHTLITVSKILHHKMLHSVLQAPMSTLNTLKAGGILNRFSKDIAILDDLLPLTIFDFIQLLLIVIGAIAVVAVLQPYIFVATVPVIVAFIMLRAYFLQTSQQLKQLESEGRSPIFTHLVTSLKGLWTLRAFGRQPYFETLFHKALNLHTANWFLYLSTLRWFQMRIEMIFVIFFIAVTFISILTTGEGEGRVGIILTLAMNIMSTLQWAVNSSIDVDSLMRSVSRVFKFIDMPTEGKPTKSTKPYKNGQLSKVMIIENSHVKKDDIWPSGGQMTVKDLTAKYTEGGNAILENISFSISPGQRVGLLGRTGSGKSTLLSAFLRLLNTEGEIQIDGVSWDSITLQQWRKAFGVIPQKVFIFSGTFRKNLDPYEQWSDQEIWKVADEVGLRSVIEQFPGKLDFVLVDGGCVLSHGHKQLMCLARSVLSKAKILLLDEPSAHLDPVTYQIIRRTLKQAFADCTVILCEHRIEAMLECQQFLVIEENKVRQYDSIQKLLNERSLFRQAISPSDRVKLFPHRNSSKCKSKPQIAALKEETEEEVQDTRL
Format: cell-based
Protocol: Primary CF airway epithelial cells were obtained from the UNC Cystic Fibrosis Tissue Procurement and Cell Culture Core. The cells are grown at 37° C. in a Heracell 150i incubator using growth media (BEGM, Fischer). Cells were then transferred to differentiation media (airway liquid interface media (ALI) media; Lechner J F and LaVeck M A, J. Tissue Culture Methods 1985, 9: 43-48) for a minimum of 4 weeks on coated Costar transwells. Two days before the assay the mucus on the apical surface of the cells was aspirated after incubating with 200 μL of differentiation media for at least thirty (30) minutes. One day before the assay test compounds were added to the basolateral surface of the cells at various test concentrations dissolved in DMSO. Duplicate wells were prepared giving a n=4 or n=6 protocol.
Cells were treated for 24 hours with various combinations and concentrations of the test articles, reference standard (3 μM VX809, positive control). Compounds stock solutions were prepared in DMSO and diluted 1/1000 into ALI media to their final assay concentration. Cells were treated with combination solutions (2 mL of each dilution) and incubated at 37° C. for 24 h.
For the equivalent current assay, cells on six Transwell (24-well) plates were treated. Each Transwell plate was filled with 200 μl of HBS on the apical surface and 2 ml on the basolateral surface. Plates were placed horizontally in a heated mount at 37° C. and equilibrated for 30 minutes. Resting current was measured for 15 min and then blocked by the apical addition of 5 μM benzamil. After 20 min, CFTR activator (10 μM forskolin) and potentiator (either 1 μM VX-770 or 3 μM FDL176) were added to both the apical and basolateral side to stimulate CFTR. An increase in chloride current is seen as an upward deflection of the trace. After another 60 min, CFTR-172 (a CFTR inhibitor, 20 μM) and/or bumetanide (20 uM) was added to block CFTR mediated chloride current.
The raw data, voltage vs. time and resistance vs. time for the equivalent current assay (sampling interval: 6 minutes) were transferred to Excel (Microsoft Office Professional, version 14.0.7106.5003) for analysis. CFTR specific current was computed from I=V/R (Ohms Law), the average amplitude of the increase in current elicited upon addition forskolin and ending upon addition of the CFTR channel specific blocker CFTR-172. This average is equivalent to the sum of the average forskolin activated and the average VX770-potentiated currents. The average current measured in vehicle (0.1% DMSO) treated cells, IV, was subtracted from the current for the test article, ITA, or from the corrector reference standard VX809 (3 uM, ISTD). For replicate measurements, the averaged vehicle subtracted response for the test article, was normalized to the averaged vehicle subtracted response of the reference corrector VX809 (3 μM).
INSC=(ITA−IV)(ave)/(ISTD−IV)(ave) (Equation 1)
A second endpoint, for the equivalent current assay, evaluated was NAUC, the normalized area under the curve (AUC) measuring the response after addition of forskolin and potentiator to the time point right before the addition of the CFTR inhibitor. The AUC is effectively the average response multiplied by the duration of the response. The AUC of the test article, AUCTA was then corrected by subtracting the average vehicle response, AUCV,ave over the same time range, and normalized as for the inhibitor-sensitive current to the difference of the corrector reference standard VX809 (3 μM VX809r,ave and the vehicle response:
NAUCTA=[AUCTA−AUCV,ave]/[AUCVx809r,ave−AUCV,ave] (Equation 2).
The normalized value for DMSO is 0.0 and for VX-809 alone is 1.0 for both of these equations.
Experiments were run with a minimum of n=4 replicates per concentration. Since the distribution for the ratio of two normal distributions is a Cauchy distribution, the median value must be used for the average and the average deviation must be used for the error of all normalized data. […]
For `CCN(C(=O)Cn1nc(-c2cc(Cl)cc(C#N)c2)c2[nH]cnc2c1=O)c1ccc2c(c1)OC(F)(F)O2` [Example 244], the “Corr Activity (NAUC)” value was “+++ (NAUC>70% of positive control)”.
With `CCN(C(=O)Cn1nc(-c2cccc(C#N)c2)c2oc(CN3CCCCC3)cc2c1=O)c1ccc2c(c1)OC(F)(F)O2` [Example 201] the “Corr Activity (NAUC)” value was “+++ (NAUC>70% of positive control)”.
With `CN(C(=O)Cn1nc(-c2cc(C#N)cc(C(=O)O)c2)c2occc2c1=O)c1ccc2c(c1)OC(F)(F)O2` [Example 213, 3-cyano-5-(5-(2-((2,2-difluorobenzo[d][1,3]dioxol-5-yl)(methyl)amino)-2-oxoethyl)-4-oxo-4,5-dihydrofuro[2,3-d]pyridazin-7-yl)benzoic acid] the “Corr Activity (NAUC)” value was “+ (NAUC<40% of positive control)”.
`Cc1nc2ccc(N(C)C(=O)Cn3nc(-c4cccc(F)c4)c4oc(C(=O)NC(C)C)cc4c3=O)cc2o1` [Example 155] was tested, and the “Corr Activity (NAUC)” value was “++ (NAUC 70-40% of positive control)”.
With `CN(C(=O)Cn1nc(-c2cccc(OC(F)(F)F)c2)c2occc2c1=O)c1ccc2c(c1)OC(F)(F)O2` [Example 90] the “Corr Activity (NAUC)” value was “++ (NAUC 70-40% of positive control)”.
For `CCN(C(=O)Cn1nc(-c2cc(C)cc(C#N)c2)c2oc(C(=O)NC3(C(F)(F)F)CC3)cc2c1=O)c1cc2c(cc1C)OC(F)(F)O2` [Example 154], the “Corr Activity (NAUC)” value was “+++ (NAUC>70% of positive control)”.
In the case of `CCN(C(=O)Cn1nc(-c2cc(F)cc(F)c2)c2oc(C)cc2c1=O)c1ccc2c(c1)OC(F)(F)O2` [Example 74], the “Corr Activity (NAUC)” value is reported as “+++ (NAUC>70% of positive control)”.
For `O=C(Cn1nc(-c2cccc(Cl)c2)c2occc2c1=O)N1CCCc2c1ccc1c2OC(F)(F)O1` [Example 51], the “Corr Activity (NAUC)” value was “++ (NAUC 70-40% of positive control)”.
For `CN(C(=O)Cn1nc(-c2cccc(C#N)c2)c2oc(C3CC3)cc2c1=O)c1ccc2c(c1)OC(F)(F)O2` [Example 220], the “Corr Activity (NAUC)” value was “++ (NAUC 70-40% of positive control)”.
`CCN(C(=O)Cn1nc(-c2ccc(CS(C)(=O)=O)c(Cl)c2)c2[nH]cnc2c1=O)c1ccc2c(c1)OC(F)(F)O2` [Example 363] was tested, and the “Corr Activity (NAUC)” value was “+ (NAUC<40% of positive control)”.
For `CCN(C(=O)Cn1nc(-c2cc(Cl)cc(Cl)c2)c2oc(C3CC3)cc2c1=O)c1ccc2c(c1)OC(F)(F)O2` [Example 221], the “Corr Activity (NAUC)” value was “+++ (NAUC>70% of positive control)”.
`Cc1cc(C#N)cc(-c2nn(CC(=O)N(C)c3cc4c(cc3C)OC(F)(F)O4)c(=O)c3nc[nH]c23)c1` [Example 249] was tested, and the “Corr Activity (NAUC)” value was “+++ (NAUC>70% of positive control)”.
For `N#Cc1cccc(-c2nn(CC(=O)N3CCCc4c3ccc3c4OC(F)(F)O3)c(=O)c3ccoc23)c1` [Example 52], the “Corr Activity (NAUC)” value was “++ (NAUC 70-40% of positive control)”.
With `CCN(C(=O)Cn1nc(-c2cc(F)cc(C#N)c2)c2oc(C(=O)NC(C)(C)C)cc2c1=O)c1cc2c(cc1C)OC(F)(F)O2` [Example 136] the “Corr Activity (NAUC)” value was “+++ (NAUC>70% of positive control)”.
`CCc1c(N(CC)C(=O)Cn2nc(-c3cccc(C#N)c3)c3occc3c2=O)ccc2c1OC(F)(F)O2` [Example 55] was tested, and the “Corr Activity (NAUC)” value was “+++ (NAUC>70% of positive control)”.
With `CCN(C(=O)Cn1nc(-c2cc(C)cc(C#N)c2)c2oc(C(=O)NC(C)(C)C)cc2c1=O)c1ccc2c(c1)OC(F)(F)O2` [Example 131] the “Corr Activity (NAUC)” value was “+++ (NAUC>70% of positive control)”.
For `O=C(Cn1nc(-c2ccc(OCC(F)(F)F)c(F)c2)c2[nH]cnc2c1=O)N(c1ccc2c(c1)OC(F)(F)O2)C1CC1` [Example 457], the “Corr Activity (NAUC)” value was “+ (NAUC<40% of positive control)”.
For `N#Cc1cc(OC(F)(F)F)cc(-c2nn(CC(=O)N(c3ccc4c(c3)OC(F)(F)O4)C3CC3)c(=O)c3nc[nH]c23)c1` [Example 408], the “Corr Activity (NAUC)” value was “++ (NAUC 70-40% of positive control)”.
With `CCN(C(=O)Cn1nc(-c2cccc(Cl)c2)c2sccc2c1=O)c1ccc2c(c1)OC(F)(F)O2` [Example 5] the “Corr Activity (NAUC)” value was “+++ (NAUC>70% of positive control)”.
`CN(C(=O)Cn1nc(-c2cc(C#N)cc(C(F)(F)F)c2)c2occc2c1=O)c1ccc2c(c1)OC(F)(F)O2` [Example 98] was tested, and the “Corr Activity (NAUC)” value was “++ (NAUC 70-40% of positive control)”.
With `CCN(C(=O)Cn1nc(-c2cccc(C#N)c2)c2oc(C3CC3)cc2c1=O)c1ccc2c(c1)OC(F)(F)O2` [Example 231] the “Corr Activity (NAUC)” value was “+++ (NAUC>70% of positive control)”.
`CCN(C(=O)Cn1nc(-c2cccc(C#N)c2)c2oc(C(=O)NC3(C(F)(F)F)CC3)cc2c1=O)c1ccc2c(c1)OC(F)(F)O2` [Example 153] was tested, and the “Corr Activity (NAUC)” value was “+++ (NAUC>70% of positive control)”.
For `CN(C(=O)Cn1nc(-c2cc(Cl)cc(C#N)c2)c2[nH]cnc2c1=O)c1ccc2c(c1)OC(F)(F)O2` [Example 243], the “Corr Activity (NAUC)” value was “+++ (NAUC>70% of positive control)”.
`CCN(C(=O)Cn1nc(-c2cc(Cl)cc(OCCOC)c2)c2[nH]cnc2c1=O)c1ccc2c(c1)OC(F)(F)O2` [Example 276] was tested, and the “Corr Activity (NAUC)” value was “+++ (NAUC>70% of positive control)”.
With `CCN(C(=O)Cn1nc(-c2cc(F)cc(C#N)c2)c2occ(C(F)(F)F)c2c1=O)c1cc2c(cc1C)OC(F)(F)O2` [Example 179] the “Corr Activity (NAUC)” value was “++ (NAUC 70-40% of positive control)”.
In the case of `O=C(Cn1nc(-c2cccc(F)c2)c2occc2c1=O)N1CCCc2c1ccc1c2OC(F)(F)O1` [Example 102], the “Corr Activity (NAUC)” value is reported as “++ (NAUC 70-40% of positive control)”.
For `CCN(C(=O)Cn1nc(-c2ccc(OC)c(S(=O)(=O)N3CCCC3)c2)c2[nH]cnc2c1=O)c1ccc2c(c1)OC(F)(F)O2` [Example 350], the “Corr Activity (NAUC)” value was “+ (NAUC<40% of positive control)”.
With `O=C(Cn1nc(-c2cc(F)cc(Cl)c2)c2[nH]cnc2c1=O)N(c1ccc2c(c1)OC(F)(F)O2)C1CC1` [Example 378] the “Corr Activity (NAUC)” value was “++ (NAUC 70-40% of positive control)”.
`CN(C(=O)Cn1nc(-c2cccc(OC(F)(F)F)c2)c2oc(C(=O)NC(C)(C)C)cc2c1=O)c1ccc2c(c1)OC(F)(F)O2` [Example 125] was tested, and the “Corr Activity (NAUC)” value was “++ (NAUC 70-40% of positive control)”.
`CCN(C(=O)Cn1nc(-c2cccc(F)c2)c2oc(C3CC3)cc2c1=O)c1ccc2c(c1)OC(F)(F)O2` [Example 229] was tested, and the “Corr Activity (NAUC)” value was “+++ (NAUC>70% of positive control)”.
For `CCN(C(=O)Cn1nc(-c2cc(Cl)cc(OCc3ccccc3)c2)c2[nH]cnc2c1=O)c1ccc2c(c1)OC(F)(F)O2` [Example 273], the “Corr Activity (NAUC)” value was “+++ (NAUC>70% of positive control)”.
For `CCN(C(=O)Cn1nc(-c2ccc(OC(C)C)c(Cl)c2)c2[nH]cnc2c1=O)c1ccc2c(c1)OC(F)(F)O2` [Example 326], the “Corr Activity (NAUC)” value was “+++ (NAUC>70% of positive control)”.
In the case of `CCN(C(=O)Cn1nc(-c2cc(Cl)cc(C(=O)N(C)C)c2)c2[nH]cnc2c1=O)c1ccc2c(c1)OC(F)(F)O2` [Example 267], the “Corr Activity (NAUC)” value is reported as “+ (NAUC<40% of positive control)”.
With `CCN(C(=O)Cn1nc(-c2cc(C#N)cc(OC)c2)c2occc2c1=O)c1ccc2c(c1)OC(F)(F)O2` [Example 110] the “Corr Activity (NAUC)” value was “+++ (NAUC>70% of positive control)”.
For `N#Cc1cc(-c2nn(CC(=O)N(c3ccc4c(c3)OC(F)(F)O4)C3CC3)c(=O)c3nc[nH]c23)ccc1N1CCC1` [Example 487], the “Corr Activity (NAUC)” value was “++ (NAUC 70-40% of positive control)”.
With `N#Cc1cccc(-c2nn(CC(=O)N(c3ccc4c(c3)OC(F)(F)O4)C3CC3)c(=O)c3nc[nH]c23)c1` [Example 372] the “Corr Activity (NAUC)” value was “+++ (NAUC>70% of positive control)”.
